Active and inactive are the calls of the source. The calls are words filed in the database; no cut-off is given here.
Tests used:
Staphylococcus aureus = assay: Antibacterial activity against Staphylococcus aureus at 100 ug/disk by paper disk method; assay type: functional, organism-based
Aeromonas salmonicida = assay: Antibacterial activity against Aeromonas salmonicida at 100 ug/disk by paper disk method; assay type: functional, organism-based

SMILES | Activity (Staphylococcus aureus) | Activity (Aeromonas salmonicida)
CC(C)/C=C/C=C1/COC(=O)[C@@H]2[C@@H]1CC[C@@]1(C)C[C@]2(O)CC[C@@H]1O | Active | Active
C=C1CC[C@@H]2O[C@@]2(C)CC[C@@H]2/C(=C\C=C\C(C)C)COC(=O)[C@@H]12 | Active | Active

Reference: ChEMBL document CHEMBL1151325, “New xenia diterpenes isolated from the soft coral, xenia florida” (J Nat Prod, 1998)
